Values after ≈ are worked out from the molar mass of the structure shown.
Experiments:
[1] = molecular target: T1, EGFR (Homo sapiens, UniProt P00533); assay: Kinase inhibitory activity, Mobility Shift Assay (EGFR); format: biochemical
T1 construct: purchased Carna 08-115
Description: (§1) Assay for Inhibitory Activity of Compounds Against VEGFR and EGFR Kinases
(§2) This assay directly monitors the inhibitory activity of compounds on kinase phosphorylation by measuring non-phosphorylated and phosphorylated substrates in the kinase reaction using Mobility Shift Assays/IMAP™ analysis. Table 2. Reagents and Instruments
(§3) Kinase and DTT were added to 1X kinase buffer to form a 2.5X kinase solution; 10 µL of the 2.5X kinase solution was transferred to a 384-well reaction plate, and 1X kinase buffer was added to the negative control wells. The plate was incubated at room temperature for 10 minutes; FAM-labeled peptide, MgCl2, ATP, and other reagents were added to 1X kinase buffer to form a 2.5X substrate solution; 10 µL of the above 2.5X substrate solution was transferred to the 384-well reaction plate; the plate was incubated at 28°C for varying times, and then 25 µL of stop solution was added to the 384-well reaction plate to terminate the reaction. Conversion rate data were read on a CaliperEZ Reader II. […] IC50 values were fitted using XLFit excel add-in version 5.4.0.8. Y = Bottom + (Top−Bottom)/(1 + […]) [formula]
(§4) X is the log value of compound concentration, Y is the inhibition rate (% inhibition).

[2] = test system: melanin; assay: Compound binding to melanin; format: in vitro ADME; conditions: cuttlefish (Sepia officinalis), melanin suspension (1 mg/mL), percentage of free drug (not bound to melanin), 2 µM compound, melanin 1 mg/mL in PBS pH 7.4, 37°C
Excerpt: Detection of Compound Binding to Melanin
Pigmented ocular tissues contain melanin within intracellular melanosomes. Drugs bind to melanin to varying degrees, from no binding to extensive binding. Therefore, melanin binding is an important characteristic affecting ocular drug delivery and biodistribution. The ability of compounds to bind to melanin must be considered in ocular drug development.
Melanin derived from cuttlefish (Sepia officinalis) melanin was purchased from Sigma Aldrich (St Louis, MO).
First, prepare a 1 mg/mL melanin suspension in PBS (pH 7.4). As a matrix washing step, suspended particles were centrifuged at 3000 rpm for 5 minutes. The resulting pellet was resuspended in fresh PBS buffer, heated to 37°C with continuous shaking, and incubated for 1 hour. Accurately pipette 2 microliters of test compound stock solution (0.1 mM) into 98 microliters of melanin suspension (1 mg/mL), resulting in a final incubation concentration of 2 µM. Similarly, accurately pipette 2 microliters of stock solution (0.1 mM) into 98 microliters of PBS buffer (containing 0.1% BSA) as a blank control sample. Samples were incubated at 37°C for 2 hours on a shaker (80-90 rpm). Then centrifuged at room temperature. 50 microliters of supernatant was aspirated and added to 50 microliters of precipitation agent (containing internal standard). All samples above were subjected to protein precipitation, centrifuged, the supernatant was taken, diluted with water (if necessary), and then injected for analysis. Simultaneously, high-binding compounds Sunitinib and chloroquine, and the low-binding compound celecoxib were measured as positive controls. An LC-MS/MS analytical method for determining compound concentration was established. The ratio of analyte/internal standard peak areas (Aanalyte/AIS) measured in the samples, calibrated by the dilution factor, was used as the surrogate concentration for data processing. The binding rate of the compound to melanin (Fb) is calculated by the formula: Fb = 100−(Ctest)/(Ccontrol) × 100% [formula]
Ctest is the drug concentration of the compound in the melanin incubation sample or the peak area ratio of the test compound to the internal standard. Ccontrol is the drug concentration of the compound in the blank control sample or the peak area ratio of the test compound to the internal standard. Percentage of free drug (Fu%) = 100 - Fb The binding rates of the compounds of the present invention to melanin are shown in the table below: Table 11. Binding Rate of Compounds to Melanin

[3] = Thermodynamic solubility test; format: physicochemical; conditions: buffer solution, aqueous buffer, thermodynamic from solid; thermodynamic solubility, room temperature, 8 hours shaking; buffers pH 2.0, 6.5, 7.4 used, pH of the tabulated value not given
Description: Solubility Test of Compounds
Table 9. Reagents and Instruments
After sonication for 10 minutes, they were fixed on a shaker and shaken at room temperature for 8 hours. After shaking, they were sonicated for 10 minutes and centrifuged at 13000 rpm for 15 minutes. 0.1 mL of supernatant was aspirated into a new tube, rinsed with 5 mL of buffer by shaking, and the liquid was discarded. 0.5 mL of supernatant was transferred again to a new tube, centrifuged at 13000 rpm for 15 minutes, and the supernatant was taken (diluted with water if necessary) for LC-MS injection analysis. Sample concentrations were quantified using a 3-5 point calibration curve.

[4] = molecular target: T2, VEGFR2 (Homo sapiens, UniProt P35968); assay: Kinase inhibitory activity, Mobility Shift Assay (VEGFR2); format: biochemical
T2 construct: purchased Carna 08-191
T2 sequence (P35968 20-1356): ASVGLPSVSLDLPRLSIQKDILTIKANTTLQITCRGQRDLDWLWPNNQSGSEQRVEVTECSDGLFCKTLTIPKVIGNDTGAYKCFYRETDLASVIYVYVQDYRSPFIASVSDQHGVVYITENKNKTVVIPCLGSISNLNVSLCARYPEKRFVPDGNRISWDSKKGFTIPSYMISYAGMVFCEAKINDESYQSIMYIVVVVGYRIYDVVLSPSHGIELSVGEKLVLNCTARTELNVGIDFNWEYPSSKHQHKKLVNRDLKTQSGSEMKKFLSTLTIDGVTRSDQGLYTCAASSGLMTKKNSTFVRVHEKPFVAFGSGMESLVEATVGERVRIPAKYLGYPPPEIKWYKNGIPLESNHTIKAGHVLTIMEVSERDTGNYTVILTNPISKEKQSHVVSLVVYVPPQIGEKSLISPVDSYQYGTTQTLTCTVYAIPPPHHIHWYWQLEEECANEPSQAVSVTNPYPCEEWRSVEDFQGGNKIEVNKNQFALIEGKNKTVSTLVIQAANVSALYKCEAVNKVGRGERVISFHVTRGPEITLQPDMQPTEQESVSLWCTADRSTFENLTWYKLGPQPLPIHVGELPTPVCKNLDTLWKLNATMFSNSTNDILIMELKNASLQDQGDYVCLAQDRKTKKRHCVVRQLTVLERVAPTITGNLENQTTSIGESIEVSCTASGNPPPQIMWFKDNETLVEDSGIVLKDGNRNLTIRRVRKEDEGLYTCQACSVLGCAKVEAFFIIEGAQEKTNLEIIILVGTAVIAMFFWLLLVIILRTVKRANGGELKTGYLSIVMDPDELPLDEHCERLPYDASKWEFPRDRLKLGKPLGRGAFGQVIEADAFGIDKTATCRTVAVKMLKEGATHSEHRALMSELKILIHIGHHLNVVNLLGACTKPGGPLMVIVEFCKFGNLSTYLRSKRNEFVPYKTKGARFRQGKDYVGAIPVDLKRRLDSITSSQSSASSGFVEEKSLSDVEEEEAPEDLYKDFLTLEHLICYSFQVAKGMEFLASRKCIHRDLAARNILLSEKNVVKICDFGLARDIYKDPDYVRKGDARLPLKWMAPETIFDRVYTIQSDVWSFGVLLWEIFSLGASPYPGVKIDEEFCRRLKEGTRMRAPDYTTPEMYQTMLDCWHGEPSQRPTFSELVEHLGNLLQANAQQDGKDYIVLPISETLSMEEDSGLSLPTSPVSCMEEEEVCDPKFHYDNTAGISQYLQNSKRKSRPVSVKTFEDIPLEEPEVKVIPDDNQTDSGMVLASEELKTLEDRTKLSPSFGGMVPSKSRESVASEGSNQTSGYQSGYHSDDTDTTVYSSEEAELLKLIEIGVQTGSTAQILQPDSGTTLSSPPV
Description: as §1, §2, §3, §4

T1 sequence (P00533 25-1210): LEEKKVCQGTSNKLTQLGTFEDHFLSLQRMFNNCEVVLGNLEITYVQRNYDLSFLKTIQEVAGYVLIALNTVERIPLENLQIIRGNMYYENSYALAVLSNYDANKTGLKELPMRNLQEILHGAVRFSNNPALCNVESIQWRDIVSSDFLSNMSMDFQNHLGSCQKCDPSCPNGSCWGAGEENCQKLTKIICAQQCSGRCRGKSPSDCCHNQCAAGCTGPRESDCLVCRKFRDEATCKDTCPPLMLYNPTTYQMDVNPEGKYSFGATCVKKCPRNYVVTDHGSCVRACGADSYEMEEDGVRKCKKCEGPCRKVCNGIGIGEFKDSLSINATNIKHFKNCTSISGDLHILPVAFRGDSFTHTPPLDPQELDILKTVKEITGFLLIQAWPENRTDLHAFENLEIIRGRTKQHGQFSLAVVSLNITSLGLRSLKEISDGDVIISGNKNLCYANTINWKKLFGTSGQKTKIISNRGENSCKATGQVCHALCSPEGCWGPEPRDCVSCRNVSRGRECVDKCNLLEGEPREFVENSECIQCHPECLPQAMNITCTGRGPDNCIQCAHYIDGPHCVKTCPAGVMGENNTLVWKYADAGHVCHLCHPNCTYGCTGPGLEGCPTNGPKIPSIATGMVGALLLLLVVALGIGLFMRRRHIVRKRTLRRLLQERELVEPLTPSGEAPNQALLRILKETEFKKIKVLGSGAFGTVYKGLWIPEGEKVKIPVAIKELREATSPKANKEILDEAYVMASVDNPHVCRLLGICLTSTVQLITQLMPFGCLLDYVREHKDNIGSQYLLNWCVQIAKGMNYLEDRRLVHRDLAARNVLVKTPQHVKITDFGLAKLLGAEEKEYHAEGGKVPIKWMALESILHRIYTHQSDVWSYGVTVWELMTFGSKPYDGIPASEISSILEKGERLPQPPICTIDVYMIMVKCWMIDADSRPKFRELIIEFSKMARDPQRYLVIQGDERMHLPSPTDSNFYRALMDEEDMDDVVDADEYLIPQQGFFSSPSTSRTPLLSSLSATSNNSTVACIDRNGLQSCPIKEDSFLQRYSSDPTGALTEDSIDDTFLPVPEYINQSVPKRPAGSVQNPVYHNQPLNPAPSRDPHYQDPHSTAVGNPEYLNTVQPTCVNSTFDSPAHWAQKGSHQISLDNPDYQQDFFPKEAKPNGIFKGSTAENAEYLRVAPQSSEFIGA

IC50 [1] [µM] | fraction unbound at 2 h, 2 µM [2] | solubility at 8 h [3] [µg/mL] | IC50 [4] [µM] | Structure (SMILES)
> 60 | 0.01 to 0.05 |  |  | CNC(=O)c1ccccc1Sc1ccc2c(/C=C/c3ccc(OCCN4CCCC4)nc3)n[nH]c2c1 [Compound I-19, N-methyl-2-((3-((E)-2-(6-(2-(pyrrolidin-1-yl)ethoxy)pyridin-3-yl)ethenyl)-1H-indazol-6-yl)thio)benzamide]
> 60 | 0.01 to 0.05 | 57.4 (≈ 115 µM) |  | CNC(=O)c1ccccc1Sc1ccc2c(/C=C/c3cncc(OCCN4CCCC4)c3)n[nH]c2c1 [Compound I-22]
 | > 0.05 | 216 (≈ 457 µM) | > 0.1 | CNC(=O)c1ccccc1Sc1ccc2c(/C=C/c3ccnn3CCN3CCCC3)n[nH]c2c1 [Compound I-25]
> 60 | 0.01 to 0.05 |  |  | CN1CCC(CCOc2ccc(/C=C/c3n[nH]c4cc(Sc5ccccc5C(=O)NC5CC5)ccc34)nc2)CC1 [Compound I-42]
 |  |  | ≤ 0.001 | O=C(NC1CC1)c1cc(F)ccc1Sc1ccc2c(/C=C/c3cnn(CCCN4CCCC4)c3)n[nH]c2c1 [Compound I-46]
6 to 60 |  |  | 0.001 to 0.01 | CNC(=O)c1cccc(F)c1Sc1ccc2c(/C=C/c3ccc(CN4CCCC4)cn3)n[nH]c2c1 [Compound I-68, 3-fluoro-N-methyl-2-({3-[(E)-2-{5-[(pyrrolidin-1-yl)methyl]pyridin-2-yl}ethenyl]-1H-indazol-6-yl}sulfanyl)benzamide]
 | > 0.05 | 80.4 (≈ 157 µM) | ≤ 0.001 | O=C(NC1CC1)c1ccc(F)cc1Sc1ccc2c(/C=C/c3ccc(CN4CCCC4)cn3)n[nH]c2c1 [Compound I-79]
 | 0.01 to 0.05 | 294 (≈ 614 µM) | ≤ 0.001 | O=C(NC1CC1)c1ccccc1Nc1ccc2c(/C=C/c3ccc(CN4CCCC4)cn3)n[nH]c2c1 [Compound I-82, N-cyclopropyl-2-({3-[(E)-2-{5-[(pyrrolidin-1-yl)methyl]pyridin-2-yl}ethenyl]-1H-indazol-6-yl}amino)benzamide]
6 to 60 |  |  | 0.001 to 0.01 | CCN(CC)Cc1ccc(/C=C/c2n[nH]c3cc(Sc4c(F)cccc4C(=O)NC4CC4)ccc23)nc1 [Compound I-85]
> 60 |  |  | > 0.1 | CCNC(=O)c1ccc(Sc2ccc3c(/C=C/c4ccc(CN(CC)CC)cn4)n[nH]c3c2)cc1F [Compound I-87, 4-({3-[(E)-2-{5-[(diethylamino)methyl]pyridin-2-yl}ethenyl]-1H-indazol-6-yl}sulfanyl)-N-ethyl-2-fluorobenzamide]
6 to 60 |  |  | ≤ 0.001 | CCNC(=O)c1ccccc1Sc1ccc2c(/C=C/c3cnn(CCCN4CCCC4)c3)n[nH]c2c1 [Compound I-101]
 |  |  | ≤ 0.001 | CCNC(=O)c1ccc(F)cc1Sc1ccc2c(/C=C/c3cnn(CCCN4CCCC4)c3)n[nH]c2c1 [Compound I-103, N-ethyl-4-fluoro-2-({3-[(E)-2-{1-[3-(pyrrolidin-1-yl)propyl]-1H-pyrazol-4-yl}ethenyl]-1H-indazol-6-yl}sulfanyl)benzamide]
6 to 60 | > 0.05 |  |  | CNC(=O)c1cc(F)ccc1Sc1ccc2c(/C=C/c3cnn(CCCN4CCCC4)c3)n[nH]c2c1 [Compound I-106]
 |  |  | ≤ 0.001 | CCN(CC)CCc1ccc(/C=C/c2n[nH]c3cc(Sc4cc(F)ccc4C(=O)NC4CC4)ccc23)nc1 [Compound I-108]
 | > 0.05 | 1950 (≈ 3680 µM) | ≤ 0.001 | CCN(CC)CCc1ccc(/C=C/c2n[nH]c3cc(Sc4ccc(F)cc4C(=O)NC4CC4)ccc23)nc1 [Compound I-109]
 |  |  | > 0.1 | CCNC(=O)c1cccc(F)c1Sc1ccc2c(/C=C/c3cccc(CN4CCCC4)n3)n[nH]c2c1 [Compound I-113, N-ethyl-3-fluoro-2-({3-[(E)-2-{6-[(pyrrolidin-1-yl)methyl]pyridin-2-yl}ethenyl]-1H-indazol-6-yl}sulfanyl)benzamide]

IC50 [1] [µM] | fraction unbound at 2 h, 2 µM [2] | solubility at 8 h [3] [µg/mL] | IC50 [4] [µM] | Structure (SMILES)
> 60 |  |  | > 0.1 | CCNC(=O)c1cccc(F)c1Sc1ccc2c(/C=C/c3cc(CN4CCCC4)ccn3)n[nH]c2c1 [Compound I-114]
> 60 | 0.01 to 0.05 |  |  | CCNC(=O)c1cccc(F)c1Sc1ccc2c(/C=C/c3cc(CCCN4CCCC4)ccn3)n[nH]c2c1 [Compound I-116, N-ethyl-3-fluoro-2-({3-[(E)-2-{4-[3-(pyrrolidin-1-yl)propyl]pyridin-2-yl}ethenyl]-1H-indazol-6-yl}sulfanyl)benzamide]
> 60 | 0.01 to 0.05 |  |  | O=C(NC1CC1)c1ccccc1Sc1ccc2c(/C=C/c3cccc(CN4CCCC4)n3)n[nH]c2c1 [Compound I-117]
> 60 | ≤ 0.01 |  |  | O=C(NC1CC1)c1cc(F)ccc1Sc1ccc2c(/C=C/c3cc(OCCN4CCCC4)ccn3)n[nH]c2c1 [Compound I-118]
> 60 |  |  | ≤ 0.001 | O=C(NC1CC1)c1cc(F)ccc1Sc1ccc2c(/C=C/c3cc(CCCN4CCCC4)ccn3)n[nH]c2c1 [Compound I-119]
> 60 |  |  | ≤ 0.001 | O=C(NC1CC1)c1ccccc1Sc1ccc2c(/C=C/c3cc(CCCN4CCCC4)ccn3)n[nH]c2c1 [Compound I-120]
> 60 |  |  |  | O=C(NC1CC1)c1cccc(F)c1Sc1ccc2c(/C=C/c3cc(CCCN4CCCC4)ccn3)n[nH]c2c1 [Compound I-123]
> 60 |  |  |  | O=C(NC1CC1)c1cccc(F)c1Sc1ccc2c(/C=C/c3cccc(CCN4CCCC4)n3)n[nH]c2c1 [Compound I-128]
> 60 |  |  |  | CCNC(=O)c1cccc(F)c1Sc1ccc2c(/C=C/c3cccc(CCN4CCCC4)n3)n[nH]c2c1 [Compound I-129]
> 60 |  |  |  | O=C(NC1CC1)c1ccccc1Sc1ccc2c(/C=C/c3cc(CCN4CCCC4)ccn3)n[nH]c2c1 [Compound I-133, N-cyclopropyl-2-((3-((E)-2-(4-(2-(pyrrolidin-1-yl)ethyl)pyridin-2-yl)ethenyl)-1H-indazol-6-yl)thio)benzamide]
> 60 |  |  |  | O=C(NC1CC1)c1cc(F)ccc1Sc1ccc2c(/C=C/c3cc(CCN4CCCC4)ccn3)n[nH]c2c1 [Compound I-135]
> 60 |  |  |  | O=C(NC1CC1)c1cc(F)ccc1Sc1ccc2c(/C=C/c3cccc(CCN4CCCC4)n3)n[nH]c2c1 [Compound I-136]
> 60 |  |  |  | O=C(NC1CC1)c1cc(F)ccc1Sc1ccc2c(/C=C/c3cc(CN4CCCC4)ccn3)n[nH]c2c1 [Compound I-137]
> 60 |  |  |  | O=C(NC1CC1)c1cc(F)ccc1Sc1ccc2c(/C=C/c3cccc(CN4CCCC4)n3)n[nH]c2c1 [Compound I-138]
> 60 |  |  |  | O=C(NC1CC1)c1ccccc1Sc1ccc2c(C#Cc3ccc(OCCN4CCCC4)cn3)n[nH]c2c1 [Compound I-139]

Structure (SMILES) | IC50 [1] [µM] | fraction unbound at 2 h, 2 µM [2] | solubility at 8 h [3] [µg/mL] | IC50 [4] [µM]
O=C(NC1CC1)c1ccccc1Sc1ccc2c(/C=C/c3cccc(CCN4CCCC4)n3)n[nH]c2c1 [Compound I-134] | > 60 |  |  | 0.001 to 0.01

Reference: patent publication EP4781984A1 (Beyang Therapeutics Co., Ltd., priority 2023, dated 2025)
